These results are taken from PMC9475137, “Sesquiterpene lactones from Artemisia vulgaris L. as potential NO inhibitors in LPS-induced RAW264.7 macrophage cells” (Frontiers in Chemistry, 2022).

What all share (type): cell-based
Data set [1] concerns COX-2. Kind of data set: COX-2 expression in LPS-induced RAW264.7 cells (quantitative real-time PCR and Western blotting). Conditions: LPS-induced RAW264.7 macrophages; qPCR and Western blotting; compound 1 at 4 μM compared with dexamethasone. On the procedure:
(§1) RAW264.7 cells were seeded in a six-well plate (10 × 10^5 cells/well) for the indicated time. Cells were pretreated with compound 1 (0.5, 1, and 4 μM) for 1 h and then stimulated with LPS (1 ug/mL) for 18 h. Total cellular RNA was extracted with Trizol reagent (TIANGEN, Beijing, China). One microgram of RNA per sample was reverse-transcribed into cDNA using the PrimeScript RT Reagent Kit (TAKARA, Dalian, China). qPCR assays were performed by the CFX96 Touch Real-Time PCR Detection System (Bio-Rad). The following primers were used: iNOS (forward, 5′-AAACCCCAGGTGCTATTCCC-3′; reverse, 5′-TGGGTCCTCTGGTCAAACTC-3′), COX-2 (forward, 5′-ATTCCAAACCAGCAGACTCATA-3′; reverse, CTTGAGTTTGAAGTGGTAACCG-3′), and GAPDH (forward, 5′- GTCATTGAGAGCAATGCCAG-3′; reverse, 5′-GTGTTCCTACCCCCAATGTG-3′). […]
(§2) RAW264.7 cells with the indicated treatment were harvested and treated in a RIPA lysis buffer (Beyotime, Shanghai, China) containing a protease and phosphatase inhibitor cocktail (Beyotime, Shanghai, China) to obtain the lysates. Then, the total proteins were measured using the bicinchoninic acid (BCA) protein assay kit (Beyotime, Shanghai, China) and regulated by a loading buffer and the RIPA lysis buffer. […] Finally, the protein bands were detected using the ImageJ software (Bio-Rad, Hercules, CA, United States).

Data set [2] has as its system NO production in LPS-induced RAW264.7 cells. Nature of the data set: Inhibition of NO production in LPS-induced RAW264.7 macrophages (Griess reagent). Conditions: for IC50: Mus musculus, RAW264.7, pretreated 1 h with compounds (0.25–4 μM), LPS 1 μg/ml 18 h, Mean ± SD, read-out: IC50 (μM), NO inhibition toward LPS-induced RAW264.7 cells. On the procedure:
The level of accumulated nitrite in the culture media reflected the level of NO using the classic Griess reagent (Beyotime, Jiangsu, China). The RAW264.7 cells were seeded in a 96-well plate with a 6 ×10^4 cells/ml density for the indicated time. Then, the cells were pretreated for 1 h with test compounds (0.25–4 μM), followed by stimulation with LPS (1 μg/ml) for 18 h. Finally, 50 ul of the culture supernatant was mixed with an equal amount of the Griess reagent, and the optical densities at 570 nm were read using a microplate reader. The nitric oxide concentration of the samples was calculated according to the standard curve.

Data set [3] in a line: Cytotoxicity against RAW264.7 cells (CCK8). As to conditions: mouse, 24 h incubation, 3.125–200 μM. On the procedure: For the cytotoxicity assay, RAW 264.7 cells were grown in DMEM containing 10% FBS and cultured at 37°C. Then, the cells were seeded in a 96-well plate (1 × 10^4 cells/well) before the cells were incubated for 24 h in various concentrations of compounds (3.125–200 μM). Cell viability was examined using a CCK8-kit. The CCK8 solution (5 µl) was added to each well and incubated for 1–2 h at 37°C. The OD value at 450 nm was quantified by Graphpad software, and the corresponding 50% cytotoxic concentration (CC50) of the compounds was subsequently obtained.

Data set [4] has as its system iNOS. Kind of data set: iNOS expression in LPS-induced RAW264.7 cells (quantitative real-time PCR and Western blotting). As to conditions: LPS-induced RAW264.7 macrophages; qPCR and Western blotting; compound 1 at 4 μM compared with dexamethasone. On the procedure:
as §1, §2

Entries after “also recorded” stand apart in the source; their conditions may differ.

Take `C=C1C(=O)O[C@H]2[C@H]1[C@@H](OC(=O)/C(C)=C\C)C=C(C)[C@]1(O)CC=C(C)[C@H]21` [Compound 1, Artemvulactone H]: in data set [1], the “expression of COX-2” value was “reduced more expressions of iNOS and COX-2 than the positive drug; also recorded: suppressed”. Besides, the “NO production inhibitory effect, in words (ranking / comparison with positive control dexamethasone)” value in data set [2] (LPS-stimulated RAW264.7 cells) is “most active”. In data set [2], the IC50 is 1.1 ± 0.1 µM. For the same molecule, the CC50 at 24 h in data set [3] is above 10 µM. Besides, in data set [4], the “expression of iNOS” value was “reduced more expressions of iNOS and COX-2 than the positive drug; also recorded: suppressed”.
For `C=C1C(=O)O[C@H]2[C@H]1[C@@H](OC(=O)C(C)CC)C=C(C)[C@]1(O)CC=C(C)[C@H]21` (stereo partly drawn) [Compound 2, Artemvulactone I], in data set [2], the IC50 came to 1.2 ± 0.3 µM. The molecule also displayed a CC50 at 24 h in data set [3] above 10 µM.
With `C=C1C(=O)O[C@H]2[C@H]1[C@@H](OC(=O)CC(C)C)C=C(C)[C@]1(O)CC=C(C)[C@H]21` [Compound 3, Artemvulactone J], the IC50 in data set [2] was 2.8 ± 0.1 µM. Moreover, the CC50 at 24 h in data set [3] is above 10 µM.
Consider `C=C1C(=O)O[C@H]2[C@H]1[C@@H](OC(=O)CC(C)C)CC(=C)[C@]1(O)CC=C(C)[C@H]21` [Compound 4, Artemvulactone K], for which the IC50 in data set [2] is 3.6 ± 0.1 µM. Further, the CC50 at 24 h in data set [3] is above 20 µM.
`C=C1CC(OC(=O)C(C)=CC)C2C(C)C(=O)OC2C2C(C)=CCC12O` (stereo not drawn) [Compound 5, Artemvulactone L]: the IC50 in data set [2] was above 10 µM. Also, in data set [3], the CC50 at 24 h was above 100 µM.
For `C=C1C(=O)O[C@H]2[C@H]1[C@@H](OC(=O)C(C)C)CC(=C)[C@]1(O)C[C@H]3O[C@@]3(C)[C@H]21` [Compound 6, Artemvulactone M], the IC50 in data set [2] came to 3.1 ± 0.1 µM. This molecule also came in with a CC50 at 24 h in data set [3] above 20 µM.
Consider `C=C1C(=O)O[C@H]2[C@H]1[C@@H](OC(=O)/C(C)=C\C)CC(=C)[C@]1(O)CC=C(C)[C@H]21` [Compound 7, Artemvulactone N], for which the IC50 in data set [2] stood at 2.1 ± 0.6 µM. The CC50 at 24 h in data set [3] was above 20 µM.
With `C=C1C(=O)O[C@H]2[C@H]1[C@@H](OC(=O)C(C)C)C=C(C)[C@]1(O)C[C@H]3O[C@@]3(C)[C@H]21` [Compound 8, Artemvulactone O], in data set [2], the IC50 came to 3.2 ± 0.1 µM. The molecule further displayed a CC50 at 24 h in data set [3] above 20 µM.
As for `C=C1C(=O)O[C@@H]2[C@H]3C(C)=CC(=O)C3=C(C)C[C@H](OC(=O)CC)[C@@H]12` [Compound 9, Artemvulactone P], in data set [2], the half-maximal inhibitory concentration (IC50) is 1.9 ± 0.8 µM. This molecule also came in with a 50% cytotoxic concentration (CC50) at 24 h in data set [3] above 20 µM.
The matching figures for `C=C1C(=O)OC2C1C(OC(=O)CC)CC(C)(OC)C1C(=O)C=C(C)C21` (stereo not drawn) [Compound 10, Artemvulactone Q]: 2.1 ± 0.1 µM and above 10 µM.
Consider `C=C1C(=O)O[C@H]2[C@H]1[C@@H](OC(=O)CC)C=C(C)[C@]1(O)C[C@H]3O[C@@]3(C)[C@H]21` [Compound 11, Artemvulactone R], for which the IC50 in data set [2] is 1.9 ± 0.4 µM. In data set [3], this molecule gave a CC50 at 24 h above 15 µM.
The like results for `C=C1C(=O)OC2C1CCC(C)(O)C1(O)C(Cl)C3OC3(C)C21` (stereo not drawn) [Compound 12, Artemvulactone S] were, in that order, 2.7 ± 0.5 µM and above 40 µM.
For the molecule `C=C1C(=O)O[C@H]2[C@H]1[C@@H](OC(=O)C(C)CC)CC(=C)[C@]1(O)CC=C(C)[C@H]21` (stereo partly drawn) [Compound 13, 1α-hydroxy-8α-methylbutyroxy-3(4),10(14),11(13)-trienguai-12,6α-olide], the IC50 in data set [2] is 1.5 ± 0.1 µM. In data set [3], this molecule yielded a CC50 at 24 h above 15 µM.
Consider `C=C1C(=O)O[C@H]2[C@H]1[C@@H](OC(=O)C=C(C)C)CC(=C)[C@]1(O)CC=C(C)[C@H]21` [Compound 14, 1α-hydroxy-8α-senecioyloxy-3(4),10(14),11(13)-trienguai-12,6α-olide], for which the IC50 in data set [2] turned out to be 1.4 ± 0.2 µM. Also, in data set [3], the CC50 at 24 h was above 15 µM.
Consider `C=C1C(=O)O[C@H]2[C@H]1[C@@H](OC(=O)/C(C)=C/C)CC(=C)[C@]1(O)CC=C(C)[C@H]21` [Compound 15, 8-epi-Tiglylrupicolin B], for which the IC50 in data set [2] stood at 1.2 ± 0.1 µM. Moreover, the CC50 at 24 h in data set [3] was above 10 µM.
The matching figures for `C=C1C(=O)O[C@H]2[C@H]1[C@@H](OC(=O)/C(C)=C\C)CC(=C)[C@]1(O)C[C@H]3O[C@@]3(C)[C@H]21` [Compound 16, 8-angeloyloxy-1α-hydroxy-3α, 4α-epoxy-5α, 7αH-10(14), 11(13)-guaiadien-12,6α-olide]: 1.1 ± 0.2 µM and above 10 µM.
`C=C1C(=O)O[C@H]2[C@H]1[C@@H](OC(=O)C(C)C)CC(=C)[C@]1(O)CC=C(C)[C@H]21` [Compound 17, 8-epi-isobutyrylrupicolin B]: the IC50 in data set [2] is 1.5 ± 0.1 µM. Also, the CC50 at 24 h in data set [3] is above 20 µM.
Turning to `C=C1C(=O)O[C@H]2[C@H]1[C@@H](OC(=O)C(C)C)C=C(C)[C@]1(O)CC=C(C)[C@H]21` [Compound 18, 8-epi-isobutyrylrupicolin], the IC50 in data set [2] came to 1.1 ± 0.1 µM. Besides, in data set [3], the CC50 at 24 h was above 20 µM.
Take `C=C1C(=O)O[C@H]2[C@H]1[C@@H](OC(=O)CC(C)C)CC(=C)[C@]1(O)C[C@H]3O[C@@]3(C)[C@H]21` [Compound 19, 3α,4α-epoxyrupicolin E]: the IC50 in data set [2] was determined as 1 ± 0.2 µM. The same molecule had a CC50 at 24 h in data set [3] above 25 µM.
For the molecule `C=C1C(=O)O[C@@H]2[C@H]3C(C)=CC(=O)C3=C(C)CC[C@@H]12` [Compound 20, dehydroleucodine], the half-inhibitory concentration (IC50) in data set [2] was 1.8 ± 0.1 µM. Further, the CC50 at 24 h in data set [3] is above 70 µM.
The like results for `C=C1C(=O)O[C@H]2[C@H]1[C@@H](OC(C)=O)CC(C)=C1C[C@H]3O[C@@]3(C)[C@@H]12` [Compound 21, (+)-Arteglasin A] were, in that order, 1.2 ± 0.2 µM and above 20 µM.
The like results for `C=C1C(=O)O[C@@H]2[C@H]3C(C)=CC(=O)C3=C(C)C[C@H](OC(C)=O)[C@@H]12` [Compound 22, Dehydromatricarin] were, in that order, 1.8 ± 0.2 µM and above 10 µM.
In the case of `C[C@@H]1C[C@H]2[C@@H]3CCC4=CC(=O)C=C[C@]4(C)[C@@]3(F)[C@@H](O)C[C@]2(C)[C@@]1(O)C(=O)CO` [Dexamethasone, reference compound], the IC50 in data set [2] amounted to 4.3 ± 0.3 µM.
